{"source": "paper PMC11231114", "about": "(EJNMMI Research, 2024)", "key": {"[1]": {"test": "Plasma pharmacokinetics of non-radioactive SYN2, single i.v. 2 mg/kg, LC-MS/MS", "format": "in vivo, Wistar rats", "procedure": "The pharmacokinetic study was also conducted using non-radioactive reference standard of [^18F]SYN2 after a single i.v. administration at a dose of 2 mg/kg in rats. Blood samples of about 0.5 ml were collected in K3-EDTA tubes at pre-dose time and 4 min, 15 min, 30 min, 60 min, 4 h, and 24 h after injection (three rats were used at each time point, each rat was bled twice). Blood samples were then centrifuged at approx. 3270 g at 5 ± 3 °C for 10 min to extract plasma, divided in two aliquots and analysed (54 plasma samples in total). The concentrations of SYN2 were determined according to a LC-MS/MS validated method according to the Guidance for Industry (FDA) and Guidance on Validation of Bioanalytical Methods (EMA)."}, "human hepatocytes": {"tested_on": "human hepatocytes", "test": "Metabolite profiling in cryopreserved hepatocytes (in vitro MetID)", "format": "in vitro ADME", "conditions": "for Relative abundance of metabolites calculated as % of parent (SYN2), Human: 1 µM SYN2, 37 °C", "procedure": "(§1) The metabolite profiling and characterization experiment of SYN2 molecule (in vitro MetID, Admescope) was conducted to evaluate potential metabolic pathways. In order to characterize the metabolites of SYN2, the compound was incubated in cryopreserved rat, dog and human hepatocytes. Prior to the incubation, the hepatocytes were thawed, suspended in Williams medium E and then centrifuged to receive a target density of about 1 million cells/ml. A SYN2 solution of 1 µM was then added to the hepatocyte suspension and incubated at 37 °C for 0, 30 and 60 min. The incubations were stopped by the addition of acetonitrile, then frozen and centrifuged to remove precipitated proteins. Supernatants were then analysed with ultra-performance liquid chromatography (UPLC) and high-resolution mass spectrometry (HRMS).\n(§2) Compound Discoverer (CD) was used for data mining with manual confirmation for metabolite profiling and characterization."}, "dog hepatocytes": {"tested_on": "dog hepatocytes", "test": "Metabolite profiling in cryopreserved hepatocytes (in vitro MetID)", "format": "in vitro ADME", "conditions": "for Relative abundance of metabolites calculated as % of parent (SYN2), Dog: 1 µM SYN2, 37 °C", "procedure": "as §1, §2"}, "rat hepatocytes": {"tested_on": "rat hepatocytes", "test": "Metabolite profiling in cryopreserved hepatocytes (in vitro MetID)", "format": "in vitro ADME", "conditions": "for Relative abundance of metabolites calculated as % of parent (SYN2), Rat: 1 µM SYN2, 37 °C", "procedure": "as §1, §2"}, "Wistar rats": {"tested_on": "Wistar rats", "test": "Extended single dose toxicity study, i.v. 2 mg/kg b.w.", "quoted_text": "Throughout the experiment, the animals’ behaviour was observed and their weight recorded.\nThe normality distribution was tested with Shapiro-Wilk test. For homogeneity of variance Brown-Forsythe test has been used. For normal distribution and homogeneous variances results, Student’s t-test was used. In the absence of normal distribution, Mann-Whitney test was used. In the case of non-homogenous variance, Cochrane-Cox test was used."}, "muscarinic M2": {"target": "T1, muscarinic M2 (Homo sapiens, UniProt P08172)", "T1 sequence (P08172 1-466)": "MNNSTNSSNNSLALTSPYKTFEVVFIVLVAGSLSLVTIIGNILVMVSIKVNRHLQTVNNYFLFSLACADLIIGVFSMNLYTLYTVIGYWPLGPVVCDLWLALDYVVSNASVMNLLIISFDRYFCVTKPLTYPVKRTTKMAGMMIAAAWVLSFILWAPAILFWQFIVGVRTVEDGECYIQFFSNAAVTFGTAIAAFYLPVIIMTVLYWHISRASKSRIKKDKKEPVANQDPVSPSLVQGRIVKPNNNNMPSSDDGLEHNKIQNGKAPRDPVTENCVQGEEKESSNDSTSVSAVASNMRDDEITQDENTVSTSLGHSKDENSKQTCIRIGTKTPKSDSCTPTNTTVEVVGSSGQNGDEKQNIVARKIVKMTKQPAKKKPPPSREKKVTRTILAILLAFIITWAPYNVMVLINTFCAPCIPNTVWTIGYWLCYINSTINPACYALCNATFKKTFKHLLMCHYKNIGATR", "test": "Functional assay at several concentrations", "format": "biochemical", "conditions": "antagonistic effect", "procedure": "(§3) IC50 values from pharmacodynamics assessment were determined by a non-linear, least squares regression analysis using MathIQ™ (ID Business Solutions Ltd., UK). […] Where presented, the Hill coefficient (nH), defining the slope of the competitive binding curve, was calculated using MathIQ™."}, "hERG": {"target": "hERG (Homo sapiens, UniProt Q12809)", "sequence (Q12809 whole entry)": "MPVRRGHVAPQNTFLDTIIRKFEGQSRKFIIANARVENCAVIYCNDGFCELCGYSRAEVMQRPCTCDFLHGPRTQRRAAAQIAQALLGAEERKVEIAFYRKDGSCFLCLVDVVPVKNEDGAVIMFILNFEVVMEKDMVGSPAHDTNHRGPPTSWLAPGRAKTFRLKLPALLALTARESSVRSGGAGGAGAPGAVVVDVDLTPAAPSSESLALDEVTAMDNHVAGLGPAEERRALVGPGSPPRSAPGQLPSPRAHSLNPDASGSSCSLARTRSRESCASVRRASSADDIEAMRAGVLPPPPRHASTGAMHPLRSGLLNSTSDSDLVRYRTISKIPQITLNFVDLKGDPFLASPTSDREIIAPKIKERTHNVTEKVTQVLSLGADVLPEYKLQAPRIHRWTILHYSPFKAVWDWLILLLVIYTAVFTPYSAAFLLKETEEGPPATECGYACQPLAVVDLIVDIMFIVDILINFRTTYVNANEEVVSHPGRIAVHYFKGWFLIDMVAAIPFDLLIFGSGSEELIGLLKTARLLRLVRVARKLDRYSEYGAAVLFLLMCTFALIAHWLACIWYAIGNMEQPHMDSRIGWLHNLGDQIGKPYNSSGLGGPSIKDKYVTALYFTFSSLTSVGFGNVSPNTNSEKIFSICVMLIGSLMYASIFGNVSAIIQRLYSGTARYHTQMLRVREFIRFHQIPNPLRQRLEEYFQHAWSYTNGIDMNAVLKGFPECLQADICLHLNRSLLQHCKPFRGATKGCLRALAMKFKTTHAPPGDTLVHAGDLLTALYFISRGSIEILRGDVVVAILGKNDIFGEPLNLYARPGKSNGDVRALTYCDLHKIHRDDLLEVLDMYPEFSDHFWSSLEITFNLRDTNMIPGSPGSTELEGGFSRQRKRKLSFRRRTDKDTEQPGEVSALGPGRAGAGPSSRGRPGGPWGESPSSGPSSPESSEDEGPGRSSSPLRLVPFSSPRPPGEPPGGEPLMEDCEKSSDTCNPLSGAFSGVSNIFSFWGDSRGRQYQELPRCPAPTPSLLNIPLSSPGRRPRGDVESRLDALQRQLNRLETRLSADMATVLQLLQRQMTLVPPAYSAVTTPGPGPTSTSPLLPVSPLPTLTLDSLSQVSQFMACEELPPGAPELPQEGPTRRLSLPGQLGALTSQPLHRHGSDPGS", "test": "Functional assay at several concentrations", "format": "biochemical", "conditions": "antagonistic effect", "procedure": "as §3"}, "potassium channel hERG": {"target": "T2, potassium channel hERG (Homo sapiens, UniProt Q12809)", "T2 construct": "purchased Eurofins Panlabs, Inc. PP68", "T2 sequence (Q12809 whole entry)": "as above", "test": "Radioligand binding assay (LeadProfilingScreen SafetyScreen panel)", "conditions": "1 µM", "procedure": "(§4) The possibility of pharmacological interactions of SYN2 was assessed in vitro in radioligand binding assays on key pharmacological target classes including GPCRs, drug transporters, ion channels, nuclear receptors and enzymes (LeadProfilingScreen SafetyScreen, PP68, Panel of 68 receptors, Eurofins Panlabs, Inc.). There was only one SYN2 concentration of 1 µM used in the study.\n(§5) IC50 values from pharmacodynamics assessment were determined by a non-linear, least squares regression analysis using MathIQ™ (ID Business Solutions Ltd., UK). Where inhibition constants (Ki) are presented, the Ki values were calculated using the equation of Cheng and Prusoff using the observed IC50 of the tested compound, the concentration of radioligand employed in the assay, and the historical values for the KD of the ligand (obtained experimentally at Eurofins Panlabs, Inc.). Where presented, the Hill coefficient (nH), defining the slope of the competitive binding curve, was calculated using MathIQ™."}, "[2]": {"target": "T3, muscarinic M2 acetylcholine receptor (Homo sapiens, UniProt P08172)", "T3 construct": "purchased Eurofins Panlabs, Inc. PP68", "T3 sequence (P08172 1-466)": "T1 sequence (P08172 1-466)", "test": "Radioligand binding assay (LeadProfilingScreen SafetyScreen panel)", "conditions": "1 µM", "procedure": "as §4, §5"}, "[3]": {"target": "T4, muscarinic acetylcholine M1 receptor (Homo sapiens, UniProt P11229)", "T4 construct": "purchased Eurofins Panlabs, Inc. PP68", "T4 sequence (P11229 1-460)": "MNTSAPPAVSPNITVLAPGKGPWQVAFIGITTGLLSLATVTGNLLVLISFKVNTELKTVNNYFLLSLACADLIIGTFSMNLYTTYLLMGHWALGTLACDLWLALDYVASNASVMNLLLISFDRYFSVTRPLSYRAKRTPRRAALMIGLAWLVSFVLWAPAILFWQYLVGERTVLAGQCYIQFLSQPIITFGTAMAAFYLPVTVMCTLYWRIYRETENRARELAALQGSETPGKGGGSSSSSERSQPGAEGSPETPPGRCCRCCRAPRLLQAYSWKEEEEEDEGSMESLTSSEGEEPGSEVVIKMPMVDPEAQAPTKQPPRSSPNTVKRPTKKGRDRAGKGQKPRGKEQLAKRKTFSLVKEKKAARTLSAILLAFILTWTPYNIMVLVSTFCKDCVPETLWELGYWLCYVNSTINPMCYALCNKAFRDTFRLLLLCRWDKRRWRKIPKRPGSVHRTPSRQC", "test": "Radioligand binding assay (LeadProfilingScreen SafetyScreen panel)", "conditions": "1 µM", "procedure": "as §4, §5"}, "[4]": {"tested_on": "GPCRs, drug transporters, ion channels, nuclear receptors and enzymes", "test": "Radioligand binding assays, remaining 65 assays of the panel of 68", "conditions": "1 µM", "procedure": "as §4, §5"}, "[5]": {"test": "Expected human Cmax after body surface area correction", "conditions": "read-out: expected Cmax, proposed maximum limit dose of 100 µg (2 µg/kg for a 50-kg patient)"}, "[6]": {"conditions": "clinical examinations, 2 mg/kg b.w. i.v., treated vs control"}, "[7]": {"conditions": "clinical-chemical examinations, 2 mg/kg b.w. i.v., treated vs control"}, "[8]": {"conditions": "post mortem examination, 2 mg/kg b.w. i.v., treated vs control"}}}
{"compound": "CN(C)c1ccc2cc3ccc(N(C)C)cc3[n+](CCF)c2c1", "note": "[SYN2]", "values": [{"measurement": "AUCt", "setting": "[1]; rat plasma", "result": 73.75, "unit": "ng·h/mL"}, {"measurement": "Clast", "setting": "[1]; rat plasma", "result": 8.95, "unit": "ng/mL"}, {"measurement": "Cmax", "setting": "[1]; rat plasma", "result": 368.67, "unit": "ng/mL"}, {"measurement": "Tmax", "setting": "[1]; rat plasma", "result": 4.2, "unit": "min"}, {"measurement": "Vz", "setting": "[1]; rat plasma", "result": 0.99, "unit": "L/kg"}, {"measurement": "Cl", "setting": "[1]; rat plasma clearance", "result": 43.2, "unit": "mL/min/kg"}, {"measurement": "T½λz", "setting": "[1]; terminal half-life, rat plasma", "result": 15.6, "unit": "min"}, {"measurement": "Relative abundance of metabolites calculated as % of parent (SYN2), Human", "setting": "human hepatocytes; 30 min", "result": "100 % of parent"}, {"measurement": "Relative abundance of metabolites calculated as % of parent (SYN2), Human", "setting": "human hepatocytes; 60 min", "result": "100 % of parent"}, {"measurement": "unchanged SYN2 remaining", "setting": "human hepatocytes; after 60 min, human hepatocytes", "result": 70, "unit": "%"}, {"measurement": "Relative abundance of metabolites calculated as % of parent (SYN2), Dog", "setting": "dog hepatocytes; 30 min", "result": "100 % of parent"}, {"measurement": "Relative abundance of metabolites calculated as % of parent (SYN2), Dog", "setting": "dog hepatocytes; 60 min", "result": "100 % of parent"}, {"measurement": "unchanged parent remaining", "setting": "dog hepatocytes; after 60 min, dog hepatocytes", "result": 5, "unit": "%"}, {"measurement": "Relative abundance of metabolites calculated as % of parent (SYN2), Rat", "setting": "rat hepatocytes; 30 min", "result": "100 % of parent"}, {"measurement": "Relative abundance of metabolites calculated as % of parent (SYN2), Rat", "setting": "rat hepatocytes; 60 min", "result": "100 % of parent"}, {"measurement": "unchanged parent remaining", "setting": "rat hepatocytes; after 60 min, rat hepatocytes", "result": 32, "unit": "%"}, {"measurement": "Body weight", "setting": "Wistar rats; [6]", "result": "-"}, {"measurement": "Clinical observations", "setting": "Wistar rats; [6]", "result": "-"}, {"measurement": "Mortality", "setting": "Wistar rats; [6]", "result": "-"}, {"measurement": "Biochemical investigations", "setting": "Wistar rats; [7]", "result": "+"}, {"measurement": "Enzymatic investigations", "setting": "Wistar rats; [7]", "result": "+"}, {"measurement": "Haematological investigations", "setting": "Wistar rats; [7]", "result": "-"}, {"measurement": "Gross examination", "setting": "Wistar rats; [8]", "result": "+"}, {"measurement": "Histopathological examinations", "setting": "Wistar rats; [8]", "result": "+"}, {"measurement": "Weight of internal organs", "setting": "Wistar rats; [8]", "result": "+"}, {"measurement": "Tolerability in the toxicological study", "setting": "Wistar rats; single i.v. 2 mg/kg b.w., Wistar rats", "result": "well-tolerated"}, {"measurement": "No Observed Adverse Effect Level (NOAEL)", "setting": "Wistar rats; single i.v. dose, Wistar rats", "result": 2, "unit": "mg/kg"}, {"measurement": "IC50", "setting": "muscarinic M2", "result": "~1", "unit": "µM"}, {"measurement": "IC50", "setting": "hERG", "result": "~1", "unit": "µM"}, {"measurement": "inhibition", "setting": "potassium channel hERG", "result": 57, "unit": "%"}, {"measurement": "inhibition", "setting": "[2]", "result": 68, "unit": "%"}, {"measurement": "inhibition", "setting": "[3]", "result": 58, "unit": "%"}, {"measurement": "mean response, remaining 65 assays", "setting": "[4]", "result": 7.63, "unit": "%"}, {"measurement": "median response, remaining 65 assays", "setting": "[4]", "result": 4, "unit": "%"}, {"measurement": "Cmax", "setting": "[5]", "result": 1.1, "unit": "nM"}]}
